Converted amounts (≈) assume the structure as drawn.
Columns and labels:
Type in all cases: functional
Staphylococcus aureus [1] = assay: Antibacterial activity against Staphylococcus aureus BNCC 186335 measured after 16 hrs by microdilution assay
Staphylococcus aureus [2] = assay: Antibacterial activity against methicillin-resistant Staphylococcus aureus BNCC 186335 measured after 16 hrs by microdilution assay
Listeria monocytogenes = assay: Antibacterial activity against Listeria monocytogenes measured after 16 hrs by microdilution assay
Escherichia coli [3] = assay: Antibacterial activity against Escherichia coli BNCC 133264 measured after 16 hrs by microdilution assay
Pseudomonas aeruginosa [4] = assay: Antibacterial activity against Pseudomonas aeruginosa BNCC 125486 measured after 16 hrs by microdilution assay
Escherichia coli [5] = assay: Antibacterial activity against multidrug-resistant Escherichia coli BNCC 133264 measured after 16 hrs by microdilution assay
Pseudomonas aeruginosa [6] = assay: Antibacterial activity against multidrug-resistant Pseudomonas aeruginosa BNCC 125486 measured after 16 hrs by microdilution assay
Acinetobacter baumannii = assay: Antibacterial activity against multidrug-resistant Acinetobacter baumannii measured after 16 hrs by microdilution assay

| Structure (SMILES) | MIC99.9 (Staphylococcus aureus [1]) [µg/mL] | MIC99.9 (Staphylococcus aureus [2]) [µg/mL] | MIC99.9 (Listeria monocytogenes) [µg/mL] | MIC99.9 (Escherichia coli [3]) [µg/mL] | MIC99.9 (Pseudomonas aeruginosa [4]) [µg/mL] | MIC99.9 (Escherichia coli [5]) [µg/mL] | MIC99.9 (Pseudomonas aeruginosa [6]) [µg/mL] | MIC99.9 (Acinetobacter baumannii) [µg/mL] |
| --- | --- | --- | --- | --- | --- | --- | --- | --- |
| CCN1CCN(C(=O)N[C@@H](C(=O)N[C@@H]2C(=O)N3C(C(=O)O)=C(CSc4nnnn4C)CS[C@H]23)c2ccc(O)cc2)C(=O)C1=O [CEFOPERAZONE] | <1 | >128 | 16 (≈ 24.8 µM) | <1 | 2 (≈ 3.1 µM) | >128 | 128 (≈ 198 µM) | >128 |
| CN[C@H](CC(C)C)C(=O)N[C@H]1C(=O)N[C@@H](CC(N)=O)C(=O)N[C@H]2C(=O)N[C@H]3C(=O)N[C@H](C(=O)N[C@H](C(=O)O)c4cc(O)cc(O)c4-c4cc3ccc4O)[C@H](O)c3ccc(c(Cl)c3)Oc3cc2cc(c3O[C@@H]2O[C@H](CO)[C@@H](O)[C@H](O)[C@H]2O[C@H]2C[C@](C)(N)[C@H](O)[C@H](C)O2)Oc2ccc(cc2Cl)[C@H]1O [VANCOMYCIN] | 2 (≈ 1.38 µM) | 2 (≈ 1.38 µM) | 1 (≈ 0.69 µM) | >128 | >128 | >128 | >128 | >128 |
